Reference: PMC4158450 (Bioorganic & medicinal chemistry letters, 2014)
Blank lines part the entries; values can stand above or below the compound they belong to.

Assays:
hA2AAR = hA2AAR (Homo sapiens, UniProt P29274); assay: hA2AAR radioligand binding
rA3AR = settings: in words; cited from earlier work
hA3AR [1] = biological target: T1, hA3AR (Homo sapiens, UniProt P0DMS8); assay: hA3AR radioligand binding; settings: in words, vs hA1AR and hA2AAR
T1 sequence (P0DMS8 1-318): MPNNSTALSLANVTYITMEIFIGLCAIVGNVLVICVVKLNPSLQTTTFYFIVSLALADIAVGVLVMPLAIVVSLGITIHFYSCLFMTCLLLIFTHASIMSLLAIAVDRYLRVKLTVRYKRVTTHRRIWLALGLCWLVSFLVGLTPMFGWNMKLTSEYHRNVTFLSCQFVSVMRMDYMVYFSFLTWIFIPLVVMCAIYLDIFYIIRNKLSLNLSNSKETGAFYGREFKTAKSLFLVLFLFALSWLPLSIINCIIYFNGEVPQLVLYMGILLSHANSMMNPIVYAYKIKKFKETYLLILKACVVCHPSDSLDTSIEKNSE

hA3AR [2] = biological target: T1, hA3AR; settings: 1S,2R diastereoisomer of 2 vs 1R,2S isomer; cited from earlier work
[3] = tested on: chronic neuropathic pain (mechanoallodynia), CCI model; assay: chronic constriction injury; type: in vivo, mouse; settings: mice, oral administration

Sequence of hA2AAR (P29274 whole entry): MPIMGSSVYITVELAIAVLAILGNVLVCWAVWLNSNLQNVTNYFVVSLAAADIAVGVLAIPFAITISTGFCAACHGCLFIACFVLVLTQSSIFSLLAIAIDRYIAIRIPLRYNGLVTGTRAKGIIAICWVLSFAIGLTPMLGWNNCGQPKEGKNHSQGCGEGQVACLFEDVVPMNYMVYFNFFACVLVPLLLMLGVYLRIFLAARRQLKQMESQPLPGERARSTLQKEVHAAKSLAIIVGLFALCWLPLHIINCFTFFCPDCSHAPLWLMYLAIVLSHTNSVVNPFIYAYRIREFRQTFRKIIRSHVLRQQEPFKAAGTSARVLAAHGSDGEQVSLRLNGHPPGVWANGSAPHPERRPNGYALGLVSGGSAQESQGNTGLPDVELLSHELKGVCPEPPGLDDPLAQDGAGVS

Ki (hA2AAR): ~1 µM
SMILES: CNC(=O)[C@@]12C[C@@H]1[C@@H](n1cnc3c(N)nc(C#Cc4ccccc4)nc31)[C@H](O)[C@@H]2O [Compound 9]

SMILES: OC[C@H]1O[C@@H](n2cnc3c(NC4CC4c4ccccc4)nc(C#Cc4ccccc4)nc32)[C@H](O)[C@@H]1O (some centres unmarked) [Compound 1]
affinity at the rA3AR as compared to the hA3AR (rA3AR): substantially lower affinity

selectivity for the A3AR (hA3AR [1]): very selective
SMILES: CNC(=O)[C@@]12C[C@@H]1[C@@H](n1cnc3c(NC4CC4c4ccc(F)c(F)c4)nc(C#Cc4ccccc4)nc31)[C@H](O)[C@@H]2O (some centres unmarked) [Compound 15]

SMILES: O=[N+]([O-])c1cccc(C2CC2Nc2nc(C#Cc3ccccc3)nc3c2ncn3[C@@H]2O[C@H](CO)[C@@H](O)[C@H]2O)c1 (some centres unmarked) [Compound 2]
fold more potent in binding to the hA3AR than the corresponding 1R,2S isomer (hA3AR [2]): ~ 10 fold

SMILES: CNC(=O)[C@@]12C[C@@H]1[C@@H](n1cnc3c(N[C@@H]4C[C@H]4c4ccc(F)c(F)c4)nc(C#Cc4ccccn4)nc31)[C@H](O)[C@@H]2O [Compound 18]
time of peak effect post-administration [3]: 1 h
